Experiments:
isolated rat adipocytes [1] = assay: Antagonism of fragment 116-167 to the leptin effect: insulin-stimulated glucose transport; assay type: cell-based; conditions: Insulin only, 5 nM (no leptin, no fragment)
Procedure: Adipocytes were prepared from the epididymal fat tissue of male Wistar rats (140-160 g, Hoechst AG breeding station, Kastengrund) by means of digesting with collagenase (Rodbell, 1964, J. Biol. Chem. 239, 375-380), washed twice with KRH (25 mM Hepes free acid, 25 mM Hepes sodium salt, 80 mM NaCl, 1 mM MgSO4, 2 mM CaCl2, 6 mM KCl, 1 mM sodium pyruvate, 0.5% BSA) and once with DMEM (Dulbecco's minimal essential medium), supplemented with 5.5 mM glucose, 20 mM Hepes (pH 7.4), 2% fetal calf serum, 1% BSA, 50 U of penicillin/ml, […], by means of flotation (800×g, 1 min, in small plastic tubes), and finally diluted to a volume of 20 ml of DMEM/g wet weight of the fat tissue (cell titer: approximately 2.5×10^5 cells/ml). […]
Glucose transport was measured as the specific uptake of the non-metabolizable glucose analog 2-deoxyglucose (Muller and Wied, 1993, Diabetes 42, 1852-1867). […] After 10 ml of scintillation fluid (water-based) had been added, the radioactivity associated with the cells was measured. […]
Isolated rat adipocytes were incubated for 17.5 h in primary culture in the presence or absence of leptin (10 nM) and increasing concentrations of leptin fragment 116-167. […] The stimulation factor for insulin was calculated as the ratio between the insulin-stimulated activity and the basal activity. […]

isolated rat adipocytes [2] = assay: Glucose transport (2-deoxyglucose uptake) in isolated rat adipocytes after primary culture with leptin, basal and insulin-stimulated; assay type: cell-based
Procedure: Adipocytes were prepared from the epididymal fat tissue of male Wistar rats (140-160 g, Hoechst AG breeding station, Kastengrund) by means of digesting with collagenase (Rodbell, 1964, J. Biol. Chem. 239, 375-380), washed twice with KRH (25 mM Hepes free acid, 25 mM Hepes sodium salt, 80 mM NaCl, 1 mM MgSO4, 2 mM CaCl2, 6 mM KCl, 1 mM sodium pyruvate, 0.5% BSA) and once with DMEM (Dulbecco's minimal essential medium), supplemented with 5.5 mM glucose, 20 mM Hepes (pH 7.4), 2% fetal calf serum, 1% BSA, 50 U of penicillin/ml, […], by means of flotation (800×g, 1 min, in small plastic tubes), and finally diluted to a volume of 20 ml of DMEM/g wet weight of the fat tissue (cell titer: approximately 2.5×10^5 cells/ml).
The adipocytes were incubated, at 37° C. for 15-18 h under an atmosphere of 5% CO2 and with gentle shaking, in supplemented (see above) DMEM in the presence of 100 nM phenylisopropyladenosine (4 ml of DMEM to 1 ml of cells, cell titer approximately 5×10^4 cell/ml, in 50 ml sterile polypropylene: tubes) and in the presence or absence of leptin. The adipocytes were subsequently washed three times with cold KRH and adjusted to a cell titer of approximately 3×10^5 cells/ml by adding 0.7 ml of glucose-free KRH to the cell layer which remained after the complete removal of the last washing solution. In order to determine the capacity of the adipocytes to be stimulated by insulin, and their sensitivity to insulin, following the primary culture, the washed adipocytes were incubated at 37° C. for 20 min in the absence or presence of human insulin (0.02-50 nM final concentration), and glucose transport or lipogenesis was then measured.
Glucose transport was measured as the specific uptake of the non-metabolizable glucose analog 2-deoxyglucose (Muller and Wied, 1993, Diabetes 42, 1852-1867). 50 μl of the adipocyte suspension in KRH, which suspension had or had not been preincubated with insulin (see above), were incubated, at 25° C. for 5 min, with 50 μl of KRH which was supplemented with 2-deoxy-D-[2,6-^3H]glucose (0.5 μCi, 0.2 mM). The incubation mixtures were transferred to thin soft-plastic centrifuge tubes, each of which already contained 200 μl of dinonyl phthalate oil, and immediately centrifuged (2,000×g, 30 sec). Using special shears, the tubes were severed within the oil layer (in the vicinity of the upper edge) and the upper halves of the tubes, together with the cell layers which had in each case been floated onto the oil layer, were transferred to scintillation vials. After 10 ml of scintillation fluid (water-based) had been added, the radioactivity associated with the cells was measured. In order to correct for 2-deoxyglucose which had become enclosed in the cell interstices, or had diffused into the cells, in a non-specific manner, the radioactivity of cells which had been preincubated with cytochalasin B (20 μM) was subtracted from the total cell-associated radioactivity of each individual incubation mixture (Gliemann et al., 1972, Biochim. Biophys. Acta 286, 1-9).
Isolated rat adipocytes were incubated for 15 h in primary culture in the presence or absence of increasing concentrations of leptin. […] The stimulation factor for insulin was calculated as the ratio between insulin-stimulated and basal activities. Each value represents the mean from two independent adipocyte cultures with activity being determined two or three times in each case.
The cells were then washed and tested for the stimulation of glucose transport by differing concentrations of insulin. Glucose transport activity is given as a “dpm value” of the 2deoxy-[^3H]glucose which is specifically associated with the cells. Each value represents the mean from two independent adipocyte cultures with the activity being determined four times in each case.

## Insulin: human insulin used to stimulate adipocytes [reference compound]
Isolated rat adipocytes [1]
  Glucose Transport, stimulation factor for insulin (stimulated/basal): 13.4
Isolated rat adipocytes [2]; insulin 10 nM
  stimulation of glucose transport by insulin: approximately 14 fold
Isolated rat adipocytes [2]; insulin dose/effect curves, glucose transport
  insulin concentration at which effects can already be detected in vitro: 0.1 to 0.2 nM
Isolated rat adipocytes [2]; no leptin, insulin 0.02 nM
  glucose transport, uptake of 3H-labeled 2-deoxyglucose: 784 dpm
Isolated rat adipocytes [2]; no leptin, insulin 0.05 nM
  glucose transport, uptake of 3H-labeled 2-deoxyglucose: 1285 dpm
Isolated rat adipocytes [2]; no leptin, insulin 0.1 nM
  glucose transport, uptake of 3H-labeled 2-deoxyglucose: 2406 dpm
Isolated rat adipocytes [2]; no leptin, insulin 0.2 nM
  glucose transport, uptake of 3H-labeled 2-deoxyglucose: 4762 dpm
Isolated rat adipocytes [2]; no leptin, insulin 0.5 nM
  glucose transport, uptake of 3H-labeled 2-deoxyglucose: 6976 dpm
Isolated rat adipocytes [2]; no leptin, insulin 1 nM
  glucose transport, uptake of 3H-labeled 2-deoxyglucose: 7981 dpm
Isolated rat adipocytes [2]; no leptin, insulin 2 nM
  glucose transport, uptake of 3H-labeled 2-deoxyglucose: 8576 dpm
Isolated rat adipocytes [2]; no leptin, insulin 5 nM
  glucose transport, uptake of 3H-labeled 2-deoxyglucose: 8956 dpm
Isolated rat adipocytes [2]; no leptin, insulin 10 nM
  glucose transport, uptake of 3H-labeled 2-deoxyglucose: 9064 dpm
Isolated rat adipocytes [2]; no leptin, insulin 50 nM
  glucose transport, uptake of 3H-labeled 2-deoxyglucose: 9072 dpm
Isolated rat adipocytes [2]; no leptin, Insulin concentration: 5 nM
  Glucose Transport, stimulation factor for insulin (stimulated/basal): 13.4

— patent publication US6399745B1, “Use of leptin antagonists for treating insulin resistance in type II diabetes” (Aventis Pharma Deutschland GmbH, priority 1996, dated 2002)
